{"source": "patent US12557779B2", "about": "(priority 2020, dated 2026)", "origin": "cited, not measured here", "target": "cannabinoid receptor type 2 (CB2) (Homo sapiens, UniProt P34972)", "sequence (P34972 whole entry, species assumed)": "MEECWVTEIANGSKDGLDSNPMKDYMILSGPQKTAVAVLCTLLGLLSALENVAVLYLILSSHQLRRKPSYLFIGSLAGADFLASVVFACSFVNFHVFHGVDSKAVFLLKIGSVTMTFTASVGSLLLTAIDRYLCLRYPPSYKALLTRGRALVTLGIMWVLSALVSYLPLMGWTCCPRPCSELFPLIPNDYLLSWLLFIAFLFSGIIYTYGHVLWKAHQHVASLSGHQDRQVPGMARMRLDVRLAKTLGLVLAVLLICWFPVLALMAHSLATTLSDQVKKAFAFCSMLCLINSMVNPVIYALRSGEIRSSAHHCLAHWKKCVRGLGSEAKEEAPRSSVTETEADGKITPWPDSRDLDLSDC", "data": [{"compound": "C=C(C)[C@@H]1CCC(C)=C[C@H]1c1c(O)cc(CCCCC)cc1O", "note": "[CBD, cannabidiol]", "values": [{"measurement": "affinity for CB2", "value": "minimal affinity"}]}]}
